In US20190029257A1, “APPLICATION FOR HERBICIDE-TOLERANT PROTEIN” (BEIJING DABEINONG TECHNOLOGY GROUP CO., LTD., priority 2016, published 2019):

What was measured:
Format in all cases: in vivo
[1] = test system: Gm chloroplastic ALT-1-01 soybean plants; assay: Glyphosate tolerance of soybean plants (herbicide damage rate); conditions: 840 g ae/ha, 1-fold field concentration; 14 DAT
Source text: (§1) The herbicide tolerance effects of Gm cytoplasmic ALT-1-01 soybean plants, Gm chloroplastic ALT-1-01 soybean plants, Gm cytoplasmic ALT-2-01 soybean plants, Gm chloroplastic ALT-2-01 soybean plants, Gm cytoplasmic ALT-3-01 soybean plants, Gm chloroplastic ALT-3-01 soybean plants and wild-type soybean plants on glyphosate were detected (at seedling stage), respectively.
(§2) 2 strains from Gm cytoplasmic ALT-1-01 soybean plants, Gm chloroplastic ALT-1-01 soybean plants, Gm cytoplasmic ALT-2-01 soybean plants, Gm chloroplastic ALT-2-01 soybean plants, Gm cytoplasmic ALT-3-01 soybean plants, Gm chloroplastic ALT-3-01 soybean plants and wild-type soybean plants were respectively taken each, and 10-15 plants were selected from each strain and tested. The plants above were sprayed with glyphosate (840 g ae/ha, 1-fold field concentration) and a blank solvent (water). The herbicide damage rate was measured for each plant according to the phytotoxicity symptoms 14 days after spraying (14 DAT): herbicide damage rate (%)=Σ(number of damaged plants at the same level×level number)/(total number of plants×highest level).

[2] = test system: Gm chloroplastic ALT-2-01 soybean plants; assay: as above; conditions: 840 g ae/ha, 1-fold field concentration; 14 DAT
Source text: as §1, §2

[3] = test system: Gm chloroplastic ALT-3-01 soybean plants; assay: as above; conditions: 840 g ae/ha, 1-fold field concentration; 14 DAT
Source text: as §1, §2

[4] = test system: Gm cytoplasmic ALT-1-01 soybean plants; assay: as above; conditions: 840 g ae/ha, 1-fold field concentration; 14 DAT
Source text: as §1, §2

[5] = test system: Gm cytoplasmic ALT-2-01 soybean plants; assay: as above; conditions: 840 g ae/ha, 1-fold field concentration; 14 DAT
Source text: as §1, §2

[6] = test system: Gm cytoplasmic ALT-3-01 soybean plants; assay: as above; conditions: 840 g ae/ha, 1-fold field concentration; 14 DAT
Source text: as §1, §2

[7] = test system: wild-type soybean plants (CK1); assay: as above; conditions: 840 g ae/ha, 1-fold field concentration; 14 DAT
Source text: as §1, §2

[8] = test system: At chloroplastic ALT-1-01 T1 plants; assay: Herbicide tolerance of Arabidopsis thaliana T1 plants (spray, resistance classes counted); conditions: number of plants 14 days after spraying
Source text: (§3) T1 transformants were initially selected from the background of untransformed seeds using a glufosinate selection scheme. About 40000 T1 seeds were screened, and 380 T1 positive transformants (PAT gene) were identified with a transformation efficiency of about 0.95%. The plants that were transformed with the recombinant expression vector DBN100632 were Arabidopsis thaliana plants having an ALT-1-01 nucleotide sequence located in the cytoplasm introduced (At cytoplasmic ALT-1-01), and the plants that were transformed with the recombinant expression vector DBN100631 were Arabidopsis thaliana plants having an ALT-1-01 nucleotide sequence located in the chloroplast introduced (At chloroplastic ALT-1-01); the plants that were transformed with the recombinant expression vector DBN100634 were Arabidopsis thaliana plants having an ALT-2-01 nucleotide sequence located in the cytoplasm introduced (At cytoplasmic ALT-2-01), and the plants that were transformed with the recombinant expression vector DBN100633 were Arabidopsis thaliana plants having an ALT-2-01 nucleotide sequence located in the chloroplast introduced (At chloroplastic ALT-2-01); and the plants that were transformed with the recombinant expression vector DBN100636 were Arabidopsis thaliana plants having an ALT-3-01 nucleotide sequence located in the cytoplasm introduced (At cytoplasmic ALT-3-01), and the plants that were transformed with the recombinant expression vector DBN100635 were Arabidopsis thaliana plants having an ALT-3-01 nucleotide sequence located in the chloroplast introduced (At chloroplastic ALT-3-01). The herbicide tolerance effects of At cytoplasmic ALT-1-01 T1 plants, At chloroplastic ALT-1-01 T1 plants, At cytoplasmic ALT-2-01 T1 plants, At chloroplastic ALT-2-01 T1 plants, At cytoplasmic ALT-3-01 T1 plants, At chloroplastic ALT-3-01 T1 plants and wild-type Arabidopsis thaliana plants on halosulfuron-methyl were detected (14 days after sowing), respectively.
(§4) […] Plants were counted for the resistance situations 14 days after spraying: those having a consistent growth status with the blank solvent (water) group after 14 days were classified as highly resistant plants, those having a bolting height less than ½ of that of the blank solvent (water) group after 14 days were classified as moderately resistant plants, those still not capable of bolting after 14 days were classified as poorly resistant plants, and those dead after 14 days were classified as non-resistant plants. Since each Arabidopsis thaliana T1 plant was an independent transformation event, a significant difference in individual T1 responses could be expected at a given dose.
as §4, with “situation” for “situations”

[9] = test system: At chloroplastic ALT-2-01 T1 plants; assay: as above; conditions: number of plants 14 days after spraying
Source text: as §3, §4
as §4, with “situation” for “situations”

[10] = test system: At chloroplastic ALT-3-01 T1 plants; assay: as above; conditions: number of plants 14 days after spraying, Total 32
Source text: as §3, §4
as §4, with “situation” for “situations”

[11] = test system: At cytoplasmic ALT-1-01 T1 plants; assay: as above; conditions: number of plants 14 days after spraying, Total 29
Source text: as §3, §4
as §4, with “situation” for “situations”

[12] = test system: At cytoplasmic ALT-2-01 T1 plants; assay: as above; conditions: number of plants 14 days after spraying
Source text: as §3, §4
as §4, with “situation” for “situations”

[13] = test system: At cytoplasmic ALT-3-01 T1 plants; assay: as above; conditions: number of plants 14 days after spraying, Total 30
Source text: as §3, §4
as §4, with “situation” for “situations”

[14] = test system: wild-type Arabidopsis thaliana plants; assay: Herbicide tolerance of Arabidopsis thaliana plants (spray, resistance classes counted); conditions: 10 g ai/ha (1x Iod.); number of plants 14 days after spraying; Total 29
Source text: as §3
(§5) At cytoplasmic ALT-1-01 T1 plants, At chloroplastic ALT-1-01 T1 plants, At cytoplasmic ALT-2-01 T1 plants, At chloroplastic ALT-2-01 T1 plants, At cytoplasmic ALT-3-01 T1 plants, At chloroplastic ALT-3-01 T1 plants and wild-type Arabidopsis thaliana plants were sprayed with halosulfuron-methyl (34 g ai/ha, 1-fold field concentration) and a blank solvent (water), respectively. Plants were counted for the resistance situations 14 days after spraying: those having a consistent growth status with the blank solvent (water) group after 14 days were classified as highly resistant plants, those having a bolting height less than ½ of that of the blank solvent (water) group after 14 days were classified as moderately resistant plants, those still not capable of bolting after 14 days were classified as poorly resistant plants, and those dead after 14 days were classified as non-resistant plants. Since each Arabidopsis thaliana T1 plant was an independent transformation event, a significant difference in individual T1 responses could be expected at a given dose.
At cytoplasmic ALT-1-01 T1 plants, At chloroplastic ALT-1-01 T1 plants, At cytoplasmic ALT-2-01 T1 plants, At chloroplastic ALT-2-01 T1 plants, At cytoplasmic ALT-3-01 T1 plants, At chloroplastic ALT-3-01 T1 plants and wild-type Arabidopsis thaliana plants in Example 4 were sprayed with iodosulfuron-methyl (10 g ai/ha, 1-fold field concentration), mesosulfuron (14 g ai/ha, 1-fold field concentration) and oxasulfuron (60 g ai/ha, 1-fold field concentration), respectively, in addition to halosulfuron-methyl (34 g ai/ha, 1-fold field concentration) and the blank solvent (water). […]

[15] = test system: all the transformed Arabidopsis thaliana T1 plants (ALT-1, ALT-2 and ALT-3); assay: Herbicide tolerance of Arabidopsis thaliana T1 plants; conditions: 1-fold field concentration; summary of Table 2
Source text: as §5
At cytoplasmic ALT-1-01 T1 plants, At chloroplastic ALT-1-01 T1 plants, At cytoplasmic ALT-2-01 T1 plants, At chloroplastic ALT-2-01 T1 plants, At cytoplasmic ALT-3-01 T1 plants, At chloroplastic ALT-3-01 T1 plants and wild-type Arabidopsis thaliana plants in Example 4 were sprayed with iodosulfuron-methyl (10 g ai/ha, 1-fold field concentration), mesosulfuron (14 g ai/ha, 1-fold field concentration) and oxasulfuron (60 g ai/ha, 1-fold field concentration), respectively, in addition to halosulfuron-methyl (34 g ai/ha, 1-fold field concentration) and the blank solvent (water). Plants were counted for the resistance situation 14 days after spraying: those having a consistent growth status with the blank solvent (water) group after 14 days were classified as highly resistant plants, those having a bolting height less than ½ of that of the blank solvent (water) group after 14 days were classified as moderately resistant plants, those still not capable of bolting after 14 days were classified as poorly resistant plants, and those dead after 14 days were classified as non-resistant plants. Since each Arabidopsis thaliana T1 plant was an independent transformation event, a significant difference in individual T1 responses could be expected at a given dose.

[16] = 14 g ai/ha (1x Mes.), genotype cell prints only "At"

O=C(O)CNCP(=O)(O)O [glyphosate, N-phosphonomethylglycine]
glyphosate herbicide damage rate [1]: ~0% | glyphosate herbicide damage rate [2]: ~0% | glyphosate herbicide damage rate [3]: ~0% | glyphosate herbicide damage rate [4]: ~0% | glyphosate herbicide damage rate [5]: ~0% | glyphosate herbicide damage rate [6]: ~0% | glyphosate herbicide damage rate [7]: not less than 90%

COC(=O)c1ccc(I)cc1S(=O)(=O)NC(=O)Nc1nc(C)nc(OC)n1 [iodosulfuron-methyl]
Highly resistant ([8]; 10 g ai/ha (1x Iod.), Total 30): 0 | Moderately resistant ([8]; 10 g ai/ha (1x Iod.), Total 30): 0 | Non-resistant ([8]; 10 g ai/ha (1x Iod.), Total 30): 30 | Poorly resistant ([8]; 10 g ai/ha (1x Iod.), Total 30): 0 | Highly resistant ([9]; 10 g ai/ha (1x Iod.), Total 31): 0 | Moderately resistant ([9]; 10 g ai/ha (1x Iod.), Total 31): 0 | Non-resistant ([9]; 10 g ai/ha (1x Iod.), Total 31): 31 | Poorly resistant ([9]; 10 g ai/ha (1x Iod.), Total 31): 0 | Highly resistant ([10]; 10 g ai/ha (1x Iod.)): 0 | Moderately resistant ([10]; 10 g ai/ha (1x Iod.)): 0 | Non-resistant ([10]; 10 g ai/ha (1x Iod.)): 32 | Poorly resistant ([10]; 10 g ai/ha (1x Iod.)): 0 | Highly resistant ([11]; 10 g ai/ha (1x Iod.)): 0 | Moderately resistant ([11]; 10 g ai/ha (1x Iod.)): 0 | Non-resistant ([11]; 10 g ai/ha (1x Iod.)): 29 | Poorly resistant ([11]; 10 g ai/ha (1x Iod.)): 0 | Highly resistant ([12]; 10 g ai/ha (1x Iod.), Total 30): 0 | Moderately resistant ([12]; 10 g ai/ha (1x Iod.), Total 30): 0 | Non-resistant ([12]; 10 g ai/ha (1x Iod.), Total 30): 30 | Poorly resistant ([12]; 10 g ai/ha (1x Iod.), Total 30): 0 | Highly resistant ([13]; 10 g ai/ha (1x Iod.)): 0 | Moderately resistant ([13]; 10 g ai/ha (1x Iod.)): 0 | Non-resistant ([13]; 10 g ai/ha (1x Iod.)): 30 | Poorly resistant ([13]; 10 g ai/ha (1x Iod.)): 0 | Highly resistant [14]: 0 | Moderately resistant [14]: 0 | Non-resistant [14]: 29 | Poorly resistant [14]: 0 | ability of the transformed plants to degrade the herbicide [15]: did not exhibit the ability to degrade | degree of damage, transformed versus wild-type plants [15]: no difference

COC(=O)c1ccc(CNS(C)(=O)=O)cc1S(=O)(=O)NC(=O)Nc1nc(OC)cc(OC)n1 [mesosulfuron]
Highly resistant ([8]; 14 g ai/ha (1x Mes.), Total 32): 0 | Moderately resistant ([8]; 14 g ai/ha (1x Mes.), Total 32): 0 | Non-resistant ([8]; 14 g ai/ha (1x Mes.), Total 32): 32 | Poorly resistant ([8]; 14 g ai/ha (1x Mes.), Total 32): 0 | Highly resistant ([9]; 14 g ai/ha (1x Mes.), Total 30): 0 | Moderately resistant ([9]; 14 g ai/ha (1x Mes.), Total 30): 0 | Non-resistant ([9]; 14 g ai/ha (1x Mes.), Total 30): 30 | Poorly resistant ([9]; 14 g ai/ha (1x Mes.), Total 30): 0 | Highly resistant [10, 16]: 0 | Moderately resistant [10, 16]: 0 | Non-resistant [10, 16]: 32 | Poorly resistant [10, 16]: 0 | Highly resistant ([11]; 14 g ai/ha (1x Mes.)): 0 | Moderately resistant ([11]; 14 g ai/ha (1x Mes.)): 0 | Non-resistant ([11]; 14 g ai/ha (1x Mes.)): 29 | Poorly resistant ([11]; 14 g ai/ha (1x Mes.)): 0 | Highly resistant ([12]; 14 g ai/ha (1x Mes.), Total 32): 0 | Moderately resistant ([12]; 14 g ai/ha (1x Mes.), Total 32): 0 | Non-resistant ([12]; 14 g ai/ha (1x Mes.), Total 32): 32 | Poorly resistant ([12]; 14 g ai/ha (1x Mes.), Total 32): 0 | Highly resistant ([13]; 14 g ai/ha (1x Mes.)): 0 | Moderately resistant ([13]; 14 g ai/ha (1x Mes.)): 0 | Non-resistant ([13]; 14 g ai/ha (1x Mes.)): 30 | Poorly resistant ([13]; 14 g ai/ha (1x Mes.)): 0 | ability of the transformed plants to degrade the herbicide [15]: did not exhibit the ability to degrade | degree of damage, transformed versus wild-type plants [15]: no difference

Cc1cc(C)nc(NC(=O)NS(=O)(=O)c2ccccc2C(=O)OC2COC2)n1 [oxasulfuron]
ability of the transformed plants to degrade the herbicide [15]: did not exhibit the ability to degrade | degree of damage, transformed versus wild-type plants [15]: no difference
